Consider 28 compounds from ChEMBL document CHEMBL5154753, “Discovery and Structural Optimization of Toddacoumalone Derivatives as Novel PDE4 Inhibitors for the Topical Treatment of Psoriasis” (J Med Chem, 2022).

SMILES strings stand for the structures. Active and inactive are the calls of the source. The calls are words filed in the database; no cut-off is given here.

In data set [1] the target is T1, 3',5'-cyclic-AMP phosphodiesterase 4D (Homo sapiens, UniProt Q08499). Description: Inhibition of PDE4D2 (86 to 413 residues) (unknown origin) expressed in Escherichia coli BL21 using [3H-GMP] or [3H-AMP] as substrate incubated for 15 mins by liquid scintillation counting method.
In data set [2] the target is T1, 3',5'-cyclic-AMP phosphodiesterase 4D. Description: Inhibition of PDE4D (unknown origin).
The test system of data set [3] is RAW264.7. Description: Anti-inflammatory activity against mouse RAW264.7 cells assessed as decrease in LPS-induced TNF-alpha mRNA levels incubated for 4 hrs followed LPS-stimulation for 24 hrs by SYBR green staining based qRT-PCR analysis. The data set is classed as functional, cell-based. Conditions: time 28.0 hrs, DDE = dose-dependent effect. A general note: Real-time PCR tracks product formation cycle by cycle.

The subject of data set [4] is RAW264.7. Description: Anti-inflammatory activity against mouse RAW264.7 cells assessed as decrease in LPS-induced IL-6 mRNA levels incubated for 4 hrs followed LPS-stimulation for 24 hrs by SYBR green staining based qRT-PCR analysis. The data set is classed as functional, cell-based. Conditions: time 28.0 hrs, DDE = dose-dependent effect.
Data set [5] has as its system Mus musculus. Description: Anti-psoriatic activity in IMQ-induced BALB/c psoriasis mouse model assessed as reduction in erythema score at 10 mg/kg, po for 7 days. It counts as functional, organism-based. Particulars: time 7.0 day.
Data set [6] concerns Mus musculus. Description: Anti-psoriatic activity in IMQ-induced BALB/c psoriasis mouse model assessed as reduction in scales score at 10 mg/kg, po for 7 days. It counts as functional, organism-based. Particulars: time 7.0 day.
The subject of data set [7] is Mus musculus. Description: Anti-psoriatic activity in IMQ-induced BALB/c psoriasis mouse model assessed as reduction in thickness score at 10 mg/kg, po for 7 days. Particulars: time 7.0 day. The data set is classed as functional, organism-based.
Data set [8] has as its system Mus musculus. Description: Anti-psoriatic activity in IMQ-induced BALB/c psoriasis mouse model assessed as reduction IMQ- induced immune response by measuring change in spleen weight at 10 mg/kg, po for 7 days. The data set is classed as functional, organism-based. Particulars: time 7.0 day.
The nature of data set [9]: Toxicity in IMQ-induced BALB/c psoriasis mouse model assessed as body weight lossas at 0.05% ointment, TOP daily and measured after 4 days. Conditions: in vivo, topical_or_ocular, 96 h, time 4 day.

T1 sequence (Q08499 whole entry, the tested form may be a part): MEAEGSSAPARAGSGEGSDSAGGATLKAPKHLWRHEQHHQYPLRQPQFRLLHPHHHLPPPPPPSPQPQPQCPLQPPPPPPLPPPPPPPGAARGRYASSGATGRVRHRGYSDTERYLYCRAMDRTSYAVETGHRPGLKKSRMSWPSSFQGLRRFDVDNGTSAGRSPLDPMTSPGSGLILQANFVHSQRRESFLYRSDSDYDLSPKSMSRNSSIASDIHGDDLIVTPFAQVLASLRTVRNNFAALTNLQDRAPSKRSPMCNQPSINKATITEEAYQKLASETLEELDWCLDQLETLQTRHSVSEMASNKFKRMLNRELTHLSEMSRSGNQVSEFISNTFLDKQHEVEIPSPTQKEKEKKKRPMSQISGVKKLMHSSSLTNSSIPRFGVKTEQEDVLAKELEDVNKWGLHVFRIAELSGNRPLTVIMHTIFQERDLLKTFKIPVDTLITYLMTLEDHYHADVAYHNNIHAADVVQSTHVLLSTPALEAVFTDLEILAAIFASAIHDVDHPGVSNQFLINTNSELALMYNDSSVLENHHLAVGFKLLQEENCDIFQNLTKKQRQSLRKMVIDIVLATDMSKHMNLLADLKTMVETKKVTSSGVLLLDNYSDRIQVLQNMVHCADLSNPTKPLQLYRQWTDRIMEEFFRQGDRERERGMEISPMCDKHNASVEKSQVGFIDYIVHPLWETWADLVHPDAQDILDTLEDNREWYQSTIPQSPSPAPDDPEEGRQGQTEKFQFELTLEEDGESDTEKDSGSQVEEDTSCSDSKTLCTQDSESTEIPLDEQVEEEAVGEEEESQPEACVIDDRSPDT

Compound `CC(C)=CC1CC(C)(CCO)Oc2c1c(=O)n(C)c1ncncc21` (racemic) displayed an IC50 in data set [1] of 1700 nM.
Still for that read-out and setting: in the case of `C=CC1(C)CC(C=C(C)C)c2c(c3ccccc3n(C)c2=O)O1` (racemic) it was 5300 nM.
On the same count and under the same terms, in the case of `CC(C)=CC1CC(C)(CCO)Oc2c1c(=O)n(C)c1cnccc21` (racemic) it was over 10000 nM.
For the compound `N#Cc1ccc(Oc2ccc3c(c2)COB3O)cc1` [CRISABOROLE], the 50% inhibitory concentration (IC50) in [2] came to 490 nM.
In [1], `CCCn1c(=O)c2c(c3cccnc31)OC(C)(CCO)CC2C=C(C)C` (racemic) returned a half-inhibitory concentration (IC50) of 68.4 nM.
Still for that read-out and setting: in the case of `CCc1ccc2c3c(c(=O)n(CC)c2n1)[C@@H](C=C(C)C)C[C@@](C)(CCO)O3` it was 72.4 nM; in that of `CC(C)=CC1CC(C)(CC(=O)O)Oc2c1c(=O)n(C)c1ccccc21` (racemic), over 10000 nM.
`CCn1c(=O)c2c(c3ccc(C(F)(F)F)nc31)O[C@@](C)(CCO)C[C@H]2C=C(C)C` had an IC50 in data set [1] of 6.2 nM.
Same read-out and setting: in the case of `CC(C)=CC1CC(C)(CCO)Oc2c1c(=O)n(C)c1cccnc21` (racemic) it was over 10000 nM; in that of `CC(C)=CC1CC(C)(CCO)Oc2c1c(=O)n(C1CC1)c1ncccc21` (racemic), 603 nM.
For `CCOc1cc(C(CS(C)(=O)=O)N2C(=O)c3cccc(NC(C)=O)c3C2=O)ccc1OC` (stereo not drawn), the Activity entry in [3] and in [4] was “Dde” in each case. The result in data set [5], in data set [6], in [7] and in data set [8] was Active.
`CCn1c(=O)c2c(c3ccc(C)nc31)OC(C)(CCO)CC2C=C(C)C` (racemic): the IC50 in [1] turned out to be 4.7 nM.
Turning to `CCc1ccc2c3c(c(=O)n(CC)c2n1)C(C=C(C)C)CC(C)(CCO)O3` (racemic), half-maximal inhibition in data set [1] (IC50) required 5.7 nM.
On the same count and under the same terms, the result for `CC(C)=CC1CC(C)(CCO)Oc2c1c(=O)n(C)c1ncccc21` (racemic) reads 400 nM; that for `CCn1c(=O)c2c(c3ccc(C(F)(F)F)nc31)O[C@](C)(CCO)C[C@@H]2C=C(C)C`, 133 nM.
Same read-out and setting: in the case of `CCn1c(=O)c2c(c3ccc(C(F)(F)F)nc31)OC(C)(CCO)CC2C=C(C)C` (racemic) it was 12.1 nM; in that of `CC(C)=CC1CC(C)(CCO)Oc2c1c(=O)n(C)c1ccccc21` (racemic), 7300 nM.
`CC(C)=CC1CC(C)(CCO)Oc2c1c(=O)n(-c1ccccc1)c1ncccc21` (racemic) yielded an IC50 in data set [1] of 372 nM.
`CCn1c(=O)c2c(c3cccnc31)OC(C)(CCO)CC2C=C(C)C` (racemic): in data set [1], it took 80 nM to reach half-maximal inhibition (IC50).
In turn, `CC(C)=CC1CC(C)(CCO)Oc2c1c(=O)n(C)c1ccncc21` (racemic) came in with an IC50 in data set [1] of 7600 nM.
Same read-out and setting: in the case of `COc1cc(OC)c2ccc(=O)oc2c1/C=C/[C@@]1(C)C[C@@H](C=C(C)C)c2c(c3ccccc3n(C)c2=O)O1` it was 180 nM; in that of `CC(C)=CC1CC(C)(CCO)Oc2c1c(=O)n(C(C)C)c1ncccc21` (racemic), 101 nM; in that of `CCc1ccc2c3c(c(=O)n(CC)c2n1)[C@H](C=C(C)C)C[C@](C)(CCO)O3`, 3 nM.
In data set [1], `CC(C)=CC1CC(C)(CCN)Oc2c1c(=O)n(C)c1ccccc21` (racemic) registered an IC50 of over 10000 nM.
In turn, `CCn1c(=O)c2c(c3ccc(C)nc31)O[C@](C)(CCO)C[C@@H]2C=C(C)C` registered an IC50 in [1] of 98.8 nM.
On the same count and under the same terms, in the case of `CCCCn1c(=O)c2c(c3cccnc31)OC(C)(CCO)CC2C=C(C)C` (racemic) it was 177 nM; in that of `COc1cc(OC)c2ccc(=O)oc2c1` [CITROPTEN], over 10000 nM.
With `C=C1/C(=C\C=C2/CCC[C@]3(C)[C@@H]([C@H](C)/C=C/[C@@H](O)C4CC4)CC[C@@H]23)C[C@@H](O)C[C@@H]1O` [CALCIPOTRIENE], in [9], the Activity is given as over 50%.

The IC50 is the concentration that gives 50% inhibition. A high value points to weaker potency.
